Legend:
[1] = Solubility Test Method (solubility in hexanes); type: physicochemical; details: hexanes containing at least 60 wt % n-hexane; room temperature and ambient pressure
Protocol: Solubility Test Method: to a 20-mL vial is added, at room temperature and ambient pressure, a known mass of test precatalyst (e.g., compound (1)) and a known volume of hexanes containing at least 60 weight percent n-hexane. A PTFE-coated magnetic stir bar is added and the mixture is allowed to stir for 1 hour before the vial is removed from the stir plate, and the mixture is allowed to sit overnight. The next day the suspension is filtered through a 0.4 μm PTFE syringe filter into a tared vial, giving a known mass of supernatant, and the hexanes are removed under reduced pressure, leaving a measurable mass of the compound of formula (1) from which wt. % solubility is calculated.

[2] = Light-off Test Method (time to maximum temperature in polymerization of 1-octene); details: for Light-off Performance (Time to Maximum (minutes)): 8 micromoles precatalyst, 0.16 g spray dried methylaluminoxane, 11 mL 1-octene
Protocol: Light-off Test Method: Under an atmosphere of nitrogen in a glovebox, charge a 40 mL glass vial with a PTFE-coated, magnetic stir bar and 0.16 g of spray dried methylaluminoxane powder of Preparation 1A. To the charged vial add 11 mL of 1-octene, and then insert the vial into an insulated sleeve mounted on a magnetic stir plate turning at approximately 300 rotations per minute (rpm). To the insulated vial add 8 micromoles (μmol) of precatalyst (e.g., compound (1) or HN5Zr dibenzyl). Cap the vial with a rubber septum. Insert a thermocouple probe through the rubber septum into the vial such that the tip of the thermocouple probe is below the liquid level. Record the temperature of the contents of the vial at 5 second intervals, continuing until after the maximum temperature is reached. Download the temperature and time data to a spreadsheet, and plot thermo-kinetic profiles for analysis.

Cc1c(C)c(C)c([N-]CCNCC[N-]c2c(C)c(C)c(C)c(C)c2C)c(C)c1C.[CH2-]c1ccccc1.[CH2-]c1ccccc1.[Zr+4] [HN5Zr dibenzyl (CE2)]
Solubility in Hexanes (wt %) [1]: 0.03 wt %
Light-off Performance (Time to Maximum (minutes)) [2]: 78.6 min

Cc1c(C)c(C)c([N-]CCNCC[N-]c2c(C)c(C)c(C)c(C)c2C)c(C)c1C.[Cl-].[Cl-].[Zr+4] [HN5Zr dichloride (CE1)]
Light-off Performance (Time to Maximum (minutes)) [2]: 5.2 min

bis(2-(pentamethylphenylamido)ethyl)-amine zirconium(IV) bis-trimethylsilylmethyl [Compound (1A)]
Light-off Performance (Time to Maximum (minutes)) [2]: 1.3 min
time to maximum temperature, times better than HN5Zr dichloride (CE1) ([2]; relative to HN5Zr dichloride (CE1)): 4 times
